Laboratory results reported in patent publication US12643924B2, “Cardiac-specific targeting-peptide (CTP), compositions, and uses thereof” (University of Pittsburgh—Of the Commonwealth System of …, priority 2018, dated 2026).
Where no end group is shown, it is not given here.

Assays:
H9C2 cells [1] = assay: Alanine scan: percentage of Cy5.5 positive H9C2 cells by FACS; format: cell-based, rat; conditions: percentage of Cy5.5 positive H9C2 cells normalized to non-mutated peptide (SEQ ID NO: 1); Cy5.5-conjugated peptides, 30 minutes at 37° C.
Procedure: (§1) Variants of SEQ ID NO: 1 in which every amino acid was systematically mutated to alanine were synthesized in the University of Pittsburgh Peptide Synthesis Facility. Each variant was conjugated to the Cyanine5.5 fluorescent dye (Cy5.5). The rat cardiomyocyte cell line H9C2 (ATCC, catalogue #: CRL-1446) was incubated for 30 minutes at 37° C. with Dimethyl sulfoxide (DMSO) as a control, or the alanine peptide variants. Cells were then washed 3 times with PBS, trypsinized and resuspended, stained for live/dead cells, and then FACS sorted for Cy5.5 positive cells.
The percentage of Cy5.5 positive H9C2 cells, normalized to the non-mutated peptide (SEQ ID NO: 1), for each peptide variant is summarized in Table 2 below.

H9C2 cells [2] = assay: Fluorescence activated cell sorting of H9C2 cells after 30 min incubation with 10 uM peptide (median Cy5.5); format: cell-based, rat; conditions: for Corrected Median Cy5.5 / Raw Median Cy5.5: H9C2 cells, 30 min incubation, 10 uM peptide, single replicates; for Corrected Median Cy5.5: corrected for peptide fluorescence; for Average Correction: average of corrected median Cy5.5, H9C2 cells, FIG. 1C
Procedure: as §1

Sequence: APAHLSSQYSRT (also: Cy5.5 conjugate, site not given here) [W3A, alanine variant of CTP, Cy5.5 conjugated]
- % transduction of H9C2 Cells (H9C2 cells [1]): 75.81%
- Corrected Median Cy5.5 (H9C2 cells [2]; listed as W3A_001): 5369.7
- Corrected Median Cy5.5 (H9C2 cells [2]; listed as W3A_002): 5369.7
- Corrected Median Cy5.5 (H9C2 cells [2]; listed as W3A_003): 5258.1
- Raw Median Cy5.5 (H9C2 cells [2]; listed as W3A_001): 4862
- Raw Median Cy5.5 (H9C2 cells [2]; listed as W3A_002): 4862
- Raw Median Cy5.5 (H9C2 cells [2]; listed as W3A_003): 4761
- Average Correction (H9C2 cells [2]): 5332.5

Sequence: APWALSSQYSRT (also: Cy5.5 conjugate, site not given here) [H4A, alanine variant of CTP, Cy5.5 conjugated]
- % transduction of H9C2 Cells (H9C2 cells [1]): 55.05%
- Corrected Median Cy5.5 (H9C2 cells [2]; listed as H4A_001): 7666.1
- Corrected Median Cy5.5 (H9C2 cells [2]; listed as H4A_002): 8011.3
- Corrected Median Cy5.5 (H9C2 cells [2]; listed as H4A_003): 6934.0
- Raw Median Cy5.5 (H9C2 cells [2]; listed as H4A_001): 7173
- Raw Median Cy5.5 (H9C2 cells [2]; listed as H4A_002): 7496
- Raw Median Cy5.5 (H9C2 cells [2]; listed as H4A_003): 6488
- Average Correction (H9C2 cells [2]): 7537.1

Sequence: APWHASSQYSRT (also: Cy5.5 conjugate, site not given here) [L5A, alanine variant of CTP, Cy5.5 conjugated]
- % transduction of H9C2 Cells (H9C2 cells [1]): 87.81%
- Corrected Median Cy5.5 (H9C2 cells [2]; listed as L5A_001): 5077.5
- Corrected Median Cy5.5 (H9C2 cells [2]; listed as L5A_002): 5522.0
- Corrected Median Cy5.5 (H9C2 cells [2]; listed as L5A_003): 5370.0
- Raw Median Cy5.5 (H9C2 cells [2]; listed as L5A_001): 3107
- Raw Median Cy5.5 (H9C2 cells [2]; listed as L5A_002): 3379
- Raw Median Cy5.5 (H9C2 cells [2]; listed as L5A_003): 3286
- Average Correction (H9C2 cells [2]): 5323.2

Sequence: APWHLASQYSRT (also: Cy5.5 conjugate, site not given here) [S6A, alanine variant of CTP, Cy5.5 conjugated]
- % transduction of H9C2 Cells (H9C2 cells [1]): 107.21%
- Corrected Median Cy5.5 (H9C2 cells [2]; listed as S6A_001): 17793.0
- Corrected Median Cy5.5 (H9C2 cells [2]; listed as S6A_002): 18393.5
- Corrected Median Cy5.5 (H9C2 cells [2]; listed as S6A_003): 20420.3
- Raw Median Cy5.5 (H9C2 cells [2]; listed as S6A_001): 22342
- Raw Median Cy5.5 (H9C2 cells [2]; listed as S6A_002): 23096
- Raw Median Cy5.5 (H9C2 cells [2]; listed as S6A_003): 25641
- Average Correction (H9C2 cells [2]): 18868.9

Sequence: APWHLSAQYSRT (also: Cy5.5 conjugate, site not given here) [S7A, alanine variant of CTP, Cy5.5 conjugated]
- % transduction of H9C2 Cells (H9C2 cells [1]): 54.32%
- Corrected Median Cy5.5 (H9C2 cells [2]; listed as S7A_001): 21208.1
- Corrected Median Cy5.5 (H9C2 cells [2]; listed as S7A_002): 23475.6
- Corrected Median Cy5.5 (H9C2 cells [2]; listed as S7A_003): 23755.1
- Raw Median Cy5.5 (H9C2 cells [2]; listed as S7A_001): 20184
- Raw Median Cy5.5 (H9C2 cells [2]; listed as S7A_002): 22342
- Raw Median Cy5.5 (H9C2 cells [2]; listed as S7A_003): 22608
- Average Correction (H9C2 cells [2]): 22813.0

Sequence: APWHLSSAYSRT (also: Cy5.5 conjugate, site not given here) [Q8A, alanine variant of CTP, Cy5.5 conjugated]
- % transduction of H9C2 Cells (H9C2 cells [1]): 67.35%
- Corrected Median Cy5.5 (H9C2 cells [2]; listed as Q8A_001): 9725.5
- Corrected Median Cy5.5 (H9C2 cells [2]; listed as Q8A_002): 9339.0
- Corrected Median Cy5.5 (H9C2 cells [2]; listed as Q8A_003): 9049.4
- Raw Median Cy5.5 (H9C2 cells [2]; listed as Q8A_001): 10041
- Raw Median Cy5.5 (H9C2 cells [2]; listed as Q8A_002): 9642
- Raw Median Cy5.5 (H9C2 cells [2]; listed as Q8A_003): 9343
- Average Correction (H9C2 cells [2]): 9371.3

Sequence: APWHLSSQASRT (also: Cy5.5 conjugate, site not given here) [Y9A, alanine variant of CTP, Cy5.5 conjugated]
- % transduction of H9C2 Cells (H9C2 cells [1]): 107%
- Corrected Median Cy5.5 (H9C2 cells [2]; listed as Y9A_001): 5365.7
- Corrected Median Cy5.5 (H9C2 cells [2]; listed as Y9A_002): 5445.9
- Corrected Median Cy5.5 (H9C2 cells [2]; listed as Y9A_003): 5586.0
- Raw Median Cy5.5 (H9C2 cells [2]; listed as Y9A_001): 5018
- Raw Median Cy5.5 (H9C2 cells [2]; listed as Y9A_002): 5093
- Raw Median Cy5.5 (H9C2 cells [2]; listed as Y9A_003): 5224
- Average Correction (H9C2 cells [2]): 5465.9

Sequence: APWHLSSQYART (also: Cy5.5 conjugate, site not given here) [S10A, alanine variant of CTP, Cy5.5 conjugated]
- % transduction of H9C2 Cells (H9C2 cells [1]): 30.61%
- Corrected Median Cy5.5 (H9C2 cells [2]; listed as S10A_001): 3707.6
- Corrected Median Cy5.5 (H9C2 cells [2]; listed as S10A_002): 3658.1
- Corrected Median Cy5.5 (H9C2 cells [2]; listed as S10A_003): 3959.6
- Raw Median Cy5.5 (H9C2 cells [2]; listed as S10A_001): 1722
- Raw Median Cy5.5 (H9C2 cells [2]; listed as S10A_002): 1699
- Raw Median Cy5.5 (H9C2 cells [2]; listed as S10A_003): 1839
- Average Correction (H9C2 cells [2]): 3775.1

Sequence: APWHLSSQYSAT (also: Cy5.5 conjugate, site not given here) [R11A, alanine variant of CTP, Cy5.5 conjugated]
- % transduction of H9C2 Cells (H9C2 cells [1]): 32.75%
- Corrected Median Cy5.5 (H9C2 cells [2]; listed as R11A_001): 10237.9
- Corrected Median Cy5.5 (H9C2 cells [2]; listed as R11A_002): 10010.7
- Corrected Median Cy5.5 (H9C2 cells [2]; listed as R11A_003): 10518.6
- Raw Median Cy5.5 (H9C2 cells [2]; listed as R11A_001): 9555
- Raw Median Cy5.5 (H9C2 cells [2]; listed as R11A_002): 9343
- Raw Median Cy5.5 (H9C2 cells [2]; listed as R11A_003): 9817
- Average Correction (H9C2 cells [2]): 10255.7

Sequence: APWHLSSQYSRA (also: Cy5.5 conjugate, site not given here) [T12A, alanine variant of CTP, Cy5.5 conjugated]
- % transduction of H9C2 Cells (H9C2 cells [1]): 90.33%
- Corrected Median Cy5.5 (H9C2 cells [2]; listed as T12A_001): 14307.2
- Corrected Median Cy5.5 (H9C2 cells [2]; listed as T12A_002): 15682.3
- Corrected Median Cy5.5 (H9C2 cells [2]; listed as T12A_003): 15498.6
- Raw Median Cy5.5 (H9C2 cells [2]; listed as T12A_001): 18458
- Raw Median Cy5.5 (H9C2 cells [2]; listed as T12A_002): 20232
- Raw Median Cy5.5 (H9C2 cells [2]; listed as T12A_003): 19995
- Average Correction (H9C2 cells [2]): 15162.7
